Data reported in ChEMBL document CHEMBL2390877, “Structural requirements for inhibitory effects of bisphenols on the activity of the sarco/endoplasmic reticulum calcium ATPase” (Bioorg Med Chem, 2013).
Calls of active or inactive are those of the source. The rule behind the calls is not given here.

Experiments:
[1] = test system: Serum; experiment: Drug uptake in human serum; type: ADME, cell-free
[2] = species: Homo sapiens; experiment: Inhibition of sarco/endoplasmic reticulum calcium ATPase in human GM08333 cells assessed as inhibition of calcium ion uptake at 50 uM measured for 1 min by Fura-2AM staining assay; type: cell-based
[3] = Inhibition of rabbit skeletal muscle sarco/endoplasmic reticulum calcium ATPase assessed as inhibition of ATP hydrolysis by spectrophotometric analysis; design: species or system Oryctolagus cuniculus

Row | SMILES | IC50 ([3]; read-out: IC50) [µM] | IC50 [3] | other results
1 | CC(C)(c1cc(Br)c(O)c(Br)c1)c1cc(Br)c(O)c(Br)c1 | 4.7 | – | Drug uptake [1]: 0.3 µM; inhibition [2]: Active
2 | CC(C)(c1cc(Br)c(OCCO)c(Br)c1)c1cc(Br)c(OCCO)c(Br)c1 | – | Not Active | –
3 | Oc1c(Cl)cc(Cl)cc1Cc1cc(Cl)cc(Cl)c1O | 31 | – | inhibition [2]: Active
4 | Oc1ccc(C2(c3ccc(O)cc3)CCCCC2)cc1 | 27 | – | –
5 | CC(C)(c1cc(Cl)c(O)c(Cl)c1)c1cc(Cl)c(O)c(Cl)c1 | 5.5 | – | inhibition [2]: Active
6 | O=C(c1ccc(O)cc1)c1ccc(O)cc1 | 200 | – | –
7 | CC(C)(c1cc(N)c(O)c(N)c1)c1cc(N)c(O)c(N)c1 | – | Not Active | –
8 | Oc1c(F)cc(C(c2cc(F)c(O)c(F)c2)(C(F)(F)F)C(F)(F)F)cc1F | 2.8 | – | –
9 | C=CCc1cc(C(C)(C)c2ccc(O)c(CC=C)c2)ccc1O | 2.2 | – | –
10 | Nc1cc(C(c2ccc(O)c(N)c2)(C(F)(F)F)C(F)(F)F)ccc1O | – | Not Active | –
11 | Cc1cc(C(C)(C)c2ccc(O)c(C)c2)ccc1O | 24 | – | –
12 | Nc1ccc(C2(c3ccc(N)cc3)CCCCC2)cc1 | – | Not Active | –
13 | CC(c1ccc(O)cc1)c1ccc(O)cc1 | 90 | – | –
14 | Nc1ccc(C(c2ccc(N)cc2)(C(F)(F)F)C(F)(F)F)cc1 | – | Not Active | –
15 | Cc1ccc(O)c(Cc2cc(C)ccc2O)c1 | 300 | – | –
16 | Oc1ccc(Cc2ccc(O)cc2)cc1 | – | Not Active | –
17 | CC(C)(c1ccc(O)c(C2CCCCC2)c1)c1ccc(O)c(C2CCCCC2)c1 | 94 | – | inhibition [2]: Active
18 | CC(C)(c1ccc(O)c(-c2ccccc2)c1)c1ccc(O)c(-c2ccccc2)c1 | 91 | – | inhibition [2]: Active
19 | CC(C)(C)c1cc(Cc2cc(C(C)(C)C)c(O)c(C(C)(C)C)c2)cc(C(C)(C)C)c1O | 16 | – | –
20 | CC(CCC(=O)O)(c1cc(Cl)c(O)c(Cl)c1)c1cc(Cl)c(O)c(Cl)c1 | 25 | – | –
21 | Cc1cc(C(C)(C)c2cc(C)c(O)c(C)c2)cc(C)c1O | 2.6 | – | –
22 | Oc1c(Cl)cc(Cl)c(Cl)c1Cc1c(O)c(Cl)cc(Cl)c1Cl [HEXACHLOROPHENE] | 4 | – | inhibition [2]: Active
23 | Oc1ccc(C(c2ccc(O)cc2)(C(F)(F)F)C(F)(F)F)cc1 | – | Not Active | –
24 | CC(C)c1cc(C(C)(C)c2ccc(O)c(C(C)C)c2)ccc1O | 3.4 | – | –
25 | CC(C)(c1ccc(O)cc1)c1ccc(O)cc1 [BISPHENOL A] | 140 | – | –
26 | CC(C)(c1cc(Br)c(OCC2CO2)c(Br)c1)c1cc(Br)c(OCC2CO2)c(Br)c1 (stereo not drawn) | – | Not Active | –
